Drawing on ChEMBL document CHEMBL3507680, “University of Dundee, Gates Library screen for HepG2 cell viability”, this text covers cytotoxicity for 38 molecules.

The series is described as follows: Human HepG2 cell viability assay in 384 well format. The series is classed as toxicity, cell-based. Details: dose 125 nL, time 70.5 hour; cytotoxicity at 70.5 h: concentration not given beside the values. The note with it: HepG2 cells, read-out: Inhibition.
With `Cc1ccc(CN2CC[C@H]3OCC[C@@H](c4nc(C)no4)[C@H]3C2)cc1`, the cytotoxicity at 70.5 h is -11.4%.
`O=C(c1ccnnc1)N1C[C@H]2CCC[C@@]2(COCC2CCOCC2)C1`: the cytotoxicity at 70.5 h was -13%.
Under `CCOCC1CN(C(=O)C2=CCCC2)Cc2cnn(CC)c21` (stereo not drawn) stands -16.7%; under `Cc1occc1C(=O)N1CCC2(CC1)NC(=O)CC2c1cnn(C)c1` (stereo not drawn), -10.3%.
For `CC(C)NC(=O)C1CN(C(=O)Nc2ccccc2)CC12CCOCC2` (stereo not drawn), the cytotoxicity at 70.5 h came to 22%.
Consider `CCOCC1CN(Cc2cnn(C)c2)Cc2ncn(CC3CC3)c21` (stereo not drawn), for which the cytotoxicity at 70.5 h worked out at 23.1%.
In the case of `CCCNC(=O)c1cc2c(c3ccccc3n2C)n1C(=O)N(C)C`, the cytotoxicity at 70.5 h is -5.66%.
Turning to `CS(=O)(=O)NCc1ncn2c1CN(C(=O)CC1CCCC1)CCC2`, the cytotoxicity at 70.5 h is -5.42%.
As for `Cc1ncccc1NC(=O)C1=NOC2(CCN(Cc3nccs3)C2)C1` (stereo not drawn), the cytotoxicity at 70.5 h was -11.1%.
In the case of `CC(C)c1nccn1C(C)C(=O)NCc1noc(Cc2cccs2)n1` (stereo not drawn), the cytotoxicity at 70.5 h came out at 21.9%.
In the case of `Cc1ccc2[nH]c(-c3cn(C4CCNCC4)nn3)nc2c1C`, the cytotoxicity at 70.5 h is -3.44%.
`CCN(Cc1cccc(C(=O)Nc2c(C)cnn2C)c1)[C@H]1COC[C@@H]1O`: the cytotoxicity at 70.5 h is -2.17%.
`Cc1cccc(CN2CCC(Cc3ccccc3F)CC2)n1`: the cytotoxicity at 70.5 h came to 0.263%.
On to `O=C1CCCCN1CCCC(=O)N1CCC2(CC1)[C@H](O)C[C@@H]2O`, for which the cytotoxicity at 70.5 h was -4.17%.
As for `COc1ccccc1[C@@H]1CN(C(=O)Cc2csc(C)n2)C[C@H]1C(=O)O`, the cytotoxicity at 70.5 h amounted to 12.8%.
Regarding `CCO[C@H]1CN(C)C[C@@H]1NC(=O)c1cc(C)nc2c(C)cccc12`, the cytotoxicity at 70.5 h was -8.5%.
As to `CN1CCN(C[C@H]2CC[C@@H](Cc3ccc4c(c3)OCO4)O2)CC1`, the cytotoxicity at 70.5 h was -6.19%.
`CCSc1ccc(C(=O)N2CC[C@](O)(CC)[C@H](O)C2)s1`: the cytotoxicity at 70.5 h was found to be 22.5%.
Under `CCCc1nc(NC2(COC)CCCC2)c2cnn(C)c2n1` stands -4.69%.
As to `COCC1(C(=O)N[C@H]2CN(c3noc(C)n3)C[C@@H]2C2CC2)CCC1`, the cytotoxicity at 70.5 h was -1.28%.
On to `c1cc(-c2nc3c(c(NCCn4ccnn4)n2)CCNCC3)ccn1`, for which the cytotoxicity at 70.5 h amounted to 0.89%.
Take `CCc1ccc2nc(C)cc(C(=O)NC3CCNC3=O)c2c1` (stereo not drawn): the cytotoxicity at 70.5 h stood at 0.829%.
For the molecule `Cc1cc(=O)c2ccccc2n1CC1CCNC1` (stereo not drawn), the cytotoxicity at 70.5 h is -1.77%.
In the case of `NC(=O)c1cc2c(nc1Oc1ccccc1CN1CCCCC1)CCC2`, the cytotoxicity at 70.5 h is -15%.
Under `CCN(CCn1cccn1)Cc1nc(-c2cc(F)ccc2F)oc1C` stands -11.2%; under `O=C(c1cscn1)N1CCCCC1c1nc2cc(F)ccc2[nH]1` (stereo not drawn), -1.08%.
Under `CC(C)c1ncc(CN2C[C@@H](CN3CCCCC3)[C@@H](CO)C2)cn1` stands -2.58%.
With `O=C(C1CCOCC1)N1CCOC(CC2CCCCC2)C1` (stereo not drawn), the cytotoxicity at 70.5 h is -8.55%.
On to `O=C(N1CCCC1)N1C[C@H]2CC[C@@H]1CN(Cc1ccncc1)C2`, for which the cytotoxicity at 70.5 h came to 17.1%.
In the case of `CCC[C@H]1CN(Cc2ccc(N(C)C)nc2)C[C@@H]1NC(=O)CO`, the cytotoxicity at 70.5 h was -6.62%.
On to `COC[C@]12COC[C@H]1CN(Cc1cc(OC)cc(OC)c1)C2`, for which the cytotoxicity at 70.5 h was -10.3%.
On to `CCc1cnc(N2CC3(CCN(Cc4ccsc4)C3)C2)nc1`, for which the cytotoxicity at 70.5 h worked out at 18.4%.
As for `CCOCC1CN(Cc2cnn(C)c2)Cc2nn(C)cc21` (stereo not drawn), the cytotoxicity at 70.5 h was 2.42%.
Under `CC(C)N1CCO[C@H]2CN(C(=O)c3ccoc3)C[C@H]21` stands -4.51%; under `COc1cc(N2C[C@@H]3COC[C@]3(COc3cccnc3)C2)ncn1`, -5%.
Under `Fc1cnc(N2CCOC3(CCN(Cc4ccsc4)CC3)C2)nc1` stands 8.85%.
In the case of `CCN1CCO[C@]2(CCC[C@H]2COCc2csc(C)n2)C1`, the cytotoxicity at 70.5 h was -7.19%.
Take `Cc1nc(CN2CCN(Cc3ccoc3)Cc3cccnc32)cs1`: the cytotoxicity at 70.5 h was determined as 32.4%.
